Laboratory results as given in patent US20240299304A1, “A METHOD FOR THE PRODUCTION OF GASTRORETENTIVE COMPACT MATRICES FOR THE CONTROLLED RELEASE OF ACTIVE SUBSTANCES AND COMPACT MATRICES THUS OBTAINED” (UNIVERSITA DEGLI STUDI DI GENOVA, priority 2021, published 2024).

Assay: pH in water of pH regulators before and after heat treatment
Format: physicochemical
Conditions: for pH in water after heat treatment: after heat treatment at 150° C. for 15 min

O=C([O-])O.[Na+] [NaHCO3, sodium bicarbonate]
pH in water after heat treatment: 10 | pH in water before heat treatment: 7

O=C([O-])[O-].[Mg+2] [MgCO3]
pH in water after heat treatment: 7 | pH in water before heat treatment: 6

O=P([O-])([O-])O.[Na+].[Na+] [Na2HPO4 2H2O, disodium hydrogen phosphate]
pH in water after heat treatment: 6 | pH in water before heat treatment: 6

O=C([O-])[O-].[Na+].[Na+] [Na2CO3, sodium carbonate]
pH in water after heat treatment: 10 | pH in water before heat treatment: 10

O.O.O.O.O.O.O.O.O.O.O.O.O=P([O-])([O-])[O-].[Na+].[Na+].[Na+] [Na3PO4 12H2O]
pH in water after heat treatment: 10 | pH in water before heat treatment: 10
